{"source": "paper PMC8007111", "about": "“Novel Potent Muscarinic Receptor Antagonists: Investigation on the Nature of Lipophilic Substituents in the 5- and/or 6-Positions of the 1,4-Dioxane Nucleus” (Journal of Medicinal Chemistry, 2020)", "key": {"[1]": {"system": "MSCs from mouse bone marrow", "experiment": "MSC viability (MTS assay), dose-response", "assay_type": "cell-based", "conditions": "24 h", "experimental": "(§1) It is well established that bone marrow MSC behavior is influenced by a variety of signaling systems. In context, cholinergic intramural stimuli and, in particular, muscarinic signals orchestrate MSCs viability and commitment.[11],[12] Considering also the pluripotent MSC nature and their contribution to bone, blood, and systemic homeostasis,[53] viability studies on MSCs were performed to determine the functional profile of 3b, the most interesting compound in this series. […] Successively, the efficacy of 3b in contrasting cell viability induced by the well-known mAChR agonist carbachol was evaluated. […] Further research on the intracellular mechanistic outcomes of 3b on MSCs remains mandatory.\nThe in vitro studies were performed by using bone marrow MSCs as a model. […] After 2 weeks of initiating culture, cells were washed with PBS, detached by trypsinization, counted, and plated at the density of 5,000 cells/well in 96 culture plates (Costar Corp., Milano, Italy) in DMEM containing 10% HIFCS, penicillin, and streptomycin.\n(§2) MSCs were treated with compound 3b (from 10^–4 to 10^–10 M) for 24 h. […] At the end of each procedure, the MSCs viability was measured by MTS assay. […] The quantity of the formazan product was directly proportional to the number of living cells in culture. The colored formazan was measured by reading the absorbance at 490 nm using a […] plate reader."}, "[2]": {"system": "MSCs from mouse bone marrow", "experiment": "Carbachol-induced MSC viability (MTS assay)", "assay_type": "cell-based", "conditions": "pre-incubation 1 h, then carbachol 10^–10 M for 24 h", "experimental": "as §1\nThe in vitro studies were performed by using bone marrow MSCs as a model. Male BALB/c mice (Harlan Italy SrL, Milano, Italy) (8 weeks old; body weight ∼24.5 g; n = 4) were kept in a laminar-flow cage in a standardized environmental condition. Food (Harlan, Italy), and water was supplied ad libitum. Mice were sacrificed by CO2 narcosis and cervical dislocation in accordance with the recommendations of the Italian Ethical Committee and under the supervision of authorized investigators. Long bones (femurs and tibiae) were dissected and cleaned from skin, muscle, and connective tissues as much as possible. Bones were placed in a culture dish containing sterile PBS. Then, the bone cavity was flushed in DMEM with a syringe in order to collect the bone marrow cells into a 50 mL sterile tube. […] After 2 weeks of initiating culture, cells were washed with PBS, detached by trypsinization, counted, and plated at the density of 5,000 cells/well in 96 culture plates (Costar Corp., Milano, Italy) in DMEM containing 10% HIFCS, penicillin, and streptomycin.\nas §2"}, "hM1 mAChR": {"target": "T1, hM1 mAChR (Homo sapiens, UniProt P11229)", "T1 construct": "expressed in transfected cells; host or cells: CHO-K1 (membrane preparation)", "T1 sequence (P11229 1-460)": "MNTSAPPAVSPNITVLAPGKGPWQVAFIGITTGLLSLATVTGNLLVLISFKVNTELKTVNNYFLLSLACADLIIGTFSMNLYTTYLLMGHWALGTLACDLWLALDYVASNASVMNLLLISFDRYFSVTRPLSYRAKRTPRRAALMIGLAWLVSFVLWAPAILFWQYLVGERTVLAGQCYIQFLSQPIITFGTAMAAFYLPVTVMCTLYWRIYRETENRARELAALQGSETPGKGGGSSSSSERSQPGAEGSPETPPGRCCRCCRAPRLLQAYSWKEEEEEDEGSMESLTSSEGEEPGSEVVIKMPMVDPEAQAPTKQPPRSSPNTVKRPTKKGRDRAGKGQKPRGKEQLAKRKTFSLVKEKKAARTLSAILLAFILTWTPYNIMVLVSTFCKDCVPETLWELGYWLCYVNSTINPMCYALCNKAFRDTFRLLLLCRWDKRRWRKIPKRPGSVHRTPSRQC", "experiment": "[3H]NMS inhibition radioligand binding, hM1 in CHO-K1 cell membranes", "conditions": "[3H]NMS, CHO-K1 cell membranes; mean ± S.E.M."}, "hM3 mAChR": {"target": "T2, hM3 mAChR (Homo sapiens, UniProt P20309)", "T2 construct": "expressed in transfected cells; host or cells: CHO-K1 (membrane preparation)", "T2 sequence (P20309 whole entry)": "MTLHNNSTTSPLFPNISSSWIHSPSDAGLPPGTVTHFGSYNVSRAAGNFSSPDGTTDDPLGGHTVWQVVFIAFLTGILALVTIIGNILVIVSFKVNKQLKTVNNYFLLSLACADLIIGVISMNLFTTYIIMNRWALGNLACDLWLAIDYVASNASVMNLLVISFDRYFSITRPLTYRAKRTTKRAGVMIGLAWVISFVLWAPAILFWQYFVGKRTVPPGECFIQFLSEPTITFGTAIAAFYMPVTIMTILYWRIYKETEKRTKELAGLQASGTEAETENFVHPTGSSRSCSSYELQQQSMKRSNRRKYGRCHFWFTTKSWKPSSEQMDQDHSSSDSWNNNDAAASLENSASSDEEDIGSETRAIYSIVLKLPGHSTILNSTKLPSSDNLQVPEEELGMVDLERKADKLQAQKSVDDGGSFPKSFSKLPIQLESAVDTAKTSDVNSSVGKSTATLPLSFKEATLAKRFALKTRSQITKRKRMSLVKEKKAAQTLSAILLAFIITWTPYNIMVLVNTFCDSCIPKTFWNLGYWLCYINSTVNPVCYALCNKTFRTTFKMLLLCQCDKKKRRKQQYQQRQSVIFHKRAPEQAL", "experiment": "[3H]NMS inhibition radioligand binding, hM3 in CHO-K1 cell membranes"}}}
{"smiles": "C[N+](C)(C)C[C@@H]1COC[C@](c2ccccc2)(C2CCCCC2)O1.[I-]", "note": "(relative stereo) [3b, 1-((2R*,6R*)-6-Cyclohexyl-6-phenyl-1,4-dioxan-2-yl)-N,N,N-trimethylmethanaminium Iodide]", "values": [{"measurement": "effect on MSCs viability", "setting": "[1]; high concentration (10^–4 M)", "value": "down-regulate MSCs viability"}, {"measurement": "effect on MSCs viability", "setting": "[1]; low concentration (10^–10 M)", "value": "increased cell viability"}, {"measurement": "effect on carbachol-induced MSC viability", "setting": "[2]", "value": "able to contrast the increase of carbachol-induced MSC viability"}, {"measurement": "pKi hM1", "setting": "hM1 mAChR", "value": "9.28 ± 0.19"}, {"measurement": "pKi hM3", "setting": "hM3 mAChR; [3H]NMS, CHO-K1 cell membranes, mean ± S.E.M.", "value": "9.07 ± 0.03"}, {"measurement": "M3/M2 selectivity ratio", "setting": "hM3 mAChR; from binding affinities at hM3 and hM2", "value": 14.5}]}
